Where only a bound is given, the exact number is not on record here.

One data set has as its system HBV. Nature of the data set: in vitro validation of anti-HBV capacity (IC50). Conditions: Hepatitis B virus, read-out: IC50, In Vitro Validation. It counts as cell-based. An excerpt: (§1) Chronic hepatitis B caused by hepatitis B virus (HBV) is a kind of serious disease. HBV inhibitory drugs are developed from a variety of compounds, and to further explore whether anti-HBV compounds are potentially promising for research, it is necessary to validate their anti-HBV capacity (IC50) and HepG2 hepatocytotoxicity (CC50). We used compounds screened with the fields of target name and target tissue from the CHEMBL database as training data and set the HBV (IC50) concentration and hepatotoxicity concentration (CC50) thresholds at 20 μM (the smaller the IC50 value; the more […]) and 100 μM (higher CC50 concentration indicates lower toxicity), respectively, to convert the compound activity data against the target into binary data for prediction. To validate the reliability of the SG-ATT model, we also used in vitro validation to test the model on IC50 and CC50 to predict the properties of the compounds. Throughout the in vitro validation, we tested the activity data of 100 compounds for IC50 and CC50.
(§2) We counted the model prediction results and listed the top 10 compounds ranked using μM prediction size. The first represents the largest μM, and the 10th represents the smallest μM.
Take `Cc1cccc(/C=C(/NC(=O)c2ccccc2)C(=O)N[C@H](CO)Cc2ccccc2)c1` [O=C(N[C@H](CO)CC1=CC=CC=C1)/C(NC(C2=CC=CC=C2) =O)=C\C3=CC=CC(C)=C3]: the half-maximal inhibitory concentration (IC50) (as a rule, the point on the concentration scale where inhibition reaches its midpoint) is greater than 20 µM.

Take `O=C(N[C@H](CO)Cc1ccccc1)/C(=C\c1ccccc1Br)NC(=O)c1ccccc1` [O=C(N[C@H](CO)CC1=CC=CC=C1)/C(NC(C2=CC=CC=C2)=O) =C\C3=CC=CC=C3Br]: the IC50 was greater than 20 µM.

Take `O=C(N[C@H](CO)Cc1ccccc1)/C(NC(=O)c1ccccc1)=C(/Br)c1ccccc1Cl` [Br/C(C1=CC=CC=C1Cl)=C(NC(C2=CC=CC=C2)=O)/ C(N[C@@H](CC3=CC=CC=C3)CO)=O]: the IC50 is 1.88 µM.

Consider `O=C(N[C@H](CO)Cc1ccccc1)/C(NC(=O)c1ccccc1)=C(/Br)c1ccccc1` [Br/C(C1=CC=CC=C1)=C(NC(C2=CC=CC=C2)=O)/ C(N[C@H](CO)CC3=CC=CC=C3)=O], for which the IC50 was 3.86 µM.

With `O=C(N[C@H](CO)Cc1ccccc1)/C(=C\c1ccccc1Cl)NC(=O)c1ccccc1` [O=C(N[C@H](CO)CC1=CC=CC=C1)/C(NC(C2=CC=CC=C2)=O) =C\C3=CC=CC=C3Cl], the IC50 was greater than 20 µM.

`O=C(N[C@H](CO)Cc1ccccc1)/C(NC(=O)c1ccccc1)=C(/Br)c1ccc(Br)cc1` [Br/C(C1=CC=C(Br)C=C1)=C(NC(C2=CC=CC=C2)=O)/ C(N[C@@H](CC3=CC=CC=C3)CO)=O]: the IC50 worked out at 4.45 µM.

Still in this data set, the particulars now being: Hepatitis B virus; anti-HBV capacity; top 10 compounds ranked by SG-ATT prediction; classification threshold 20 μM; read-out: IC50, In Vitro Validation.
With `O=C(N[C@H](CO)Cc1ccccc1)/C(=C\c1ccccc1)NC(=O)c1ccccc1F` [O=C(N[C@H](CO)CC1=CC=CC=C1)/C(NC(C2=C(F) C=CC=C2)=O)=C\C3=CC=CC=C3], the IC50 is greater than 20 µM.

As for `O=C(N[C@@H](Cc1ccccc1)C(=O)N1CCCCC1)c1ccccc1` [O=C(N1CCCCC1)[C@@H](NC(C2=CC=CC=C2) =O)CC3=CC=CC=C3], the 50% inhibitory concentration (IC50) is greater than 20 µM.

`CCN(CC)CCOc1ccc2nc(SCc3ccccc3OC)n(Cc3cccs3)c(=O)c2c1` [O=C1C2=CC(OCCN(CC)CC)=CC=C2N=C (SCC3=C(OC)C=CC=C3)N1CC4=CC=CS4]: the half-inhibitory concentration (IC50) was 1.93 µM.

As for `COc1ccccc1/C(Br)=C(/NC(=O)c1ccc([N+](=O)[O-])cc1)C(=O)N[C@@H](CO)C(C)C` [Br/C(C1=CC=CC=C1OC)=C(NC(C2=CC=C([N+]([O-]) =O)C=C2)=O)/C(N[C@@H](CO)C(C)C)=O], the 50% inhibitory concentration (IC50) is 2.06 µM.

Test system in a further data set: not listed separately
The experiment in a line: in vitro validation of HepG2 hepatocytotoxicity (CC50). Format: cell-based. Particulars: human, HepG2 cells, top 10 compounds ranked by SG-ATT prediction, classification threshold 100 μM.
Excerpt: as §1, §2
In the case of `O=C(N/C(C(=O)N1CCCCC1)=C(\Br)c1nccs1)c1ccc(F)cc1` [O=C(N/C(C(N1CCCCC1)=O)=C(Br)/C2=NC=CS2) C(C=C3)=CC=C3F], the CC50 (as a rule, the concentration at which the toxic effect on the cells reaches its halfway point) is greater than 100 µM.

`CC(C)C(CO)NC(=O)[C@H](Cc1ccc(OCCN(C)C)cc1)NC(=O)c1ccccc1` (some centres unmarked) [O=C(NC(CO)C(C)C)[C@@H](NC(C1=CC=CC=C1)=O)CC2=CC=C(OCCN(C)C)C=C2]: the CC50 is 89.1 µM.

The same data set, now with this note: human, top 10 compounds ranked by SG-ATT prediction, classification threshold 100 μM.
With `O=C(N[C@H](CO)Cc1ccccc1)/C(=C\c1ccccc1)NC(=O)c1ccccc1F` [O=C(N[C@H](CO)CC1=CC=CC=C1)/C(NC(C2=C(F) C=CC=C2)=O)=C\C3=CC=CC=C3], the cytotoxic concentration (CC50) is greater than 100 µM.

With `O=C(N[C@H](CO)Cc1ccccc1)/C(NC(=O)c1ccccc1)=C(/Br)c1ccccc1Br` [Br/C(C1=CC=CC=C1Br)=C(NC(C2=CC=CC=C2)=O)/ C(N[C@@H](CC3=CC=CC=C3)CO)=O], the CC50 was greater than 100 µM.

For the compound `Cc1cccc(/C=C(/NC(=O)c2ccccc2)C(=O)N[C@H](CO)Cc2ccccc2)c1` [O=C(N[C@H](CO)CC1=CC=CC=C1)/C(NC(C2=CC=CC=C2) =O)=C\C3=CC=CC(C)=C3], the cytotoxic concentration (CC50) was greater than 100 µM.

As to `COc1ccccc1/C(Br)=C(/NC(=O)c1ccc([N+](=O)[O-])cc1)C(=O)N[C@@H](CO)CC(C)C` [O=C(N[C@H](CC(C)C)CO)/C(NC(C1=CC=C([N+]([O-])=O) C=C1)=O)=C(Br)\C2=CC=CC=C2OC], the CC50 is 86.6 µM.

For the compound `N#Cc1ccc(/C(Br)=C(/NC(=O)c2ccccc2)C(=O)N[C@H](CO)Cc2ccccc2)cc1` [Br/C(C1=CC=C(C#N)C=C1)=C(NC(C2=CC=CC=C2)=O)/ C(N[C@@H](CC3=CC=CC=C3)CO)=O], the half-maximal cytotoxic concentration (CC50) is greater than 100 µM.

As to `O=C(N[C@H](CO)Cc1ccccc1)/C(=C\c1ccc(Br)cc1)NC(=O)c1ccccc1` [O=C(N[C@H](CO)CC1=CC=CC=C1)/C (NC(C2=CC=CC=C2)=O)=C\C3=CC=C(Br)C=C3], the CC50 was 72.7 µM.

With `O=C(N[C@H](CO)Cc1ccccc1)/C(=C\c1ccccc1Cl)NC(=O)c1ccccc1` [O=C(N[C@H](CO)CC1=CC=CC=C1)/C(NC(C2=CC=CC=C2)=O) =C\C3=CC=CC=C3Cl], the half-maximal cytotoxic concentration (CC50) was greater than 100 µM.

With `O=C(N[C@H](CO)Cc1ccccc1)/C(NC(=O)c1ccccc1)=C(/Br)c1ccc(O)cc1` [Br/C(C1=CC=C(O)C=C1)=C(NC(C2=CC=CC=C2)=O)/ C(N[C@H](CO)CC3=CC=CC=C3)=O], the CC50 was greater than 100 µM.

Source of the values: paper PMC10819071, “SG-ATT: A Sequence Graph Cross-Attention Representation Architecture for Molecular Property Prediction” (Molecules, 2024).
